We go through one molecule from patent US10166237B2, “Compounds and methods for inducing chondrogenesis” (The Scripps Research Institute, priority 2011, dated 2019).

For one data set, the system named is hMSC. As to the kind of experiment: type II collagen and aggrecan immunohistochemistry in hMSC pellet culture. It is filed as cell-based, human. The conditions noted are these: 21 days. An excerpt:
(§1) In the screen, hMSCs were used as a surrogate to future targeting of the resident MSCs with the cartilage joint. It was in that setting upon which we identified PRO1. In a joint injury, the primary cell type a therapeutic would have contact with is the chondrocyte. Although cartilage or chondrocyte-targeted screening has not lead to the development of a successful drug modifying osteoarthritis drug (DMOAD) to date, it is believed that a stem cell-based therapeutic would protect and even repair the existing chondrocytes. Therefore, protection of the articular chondrocytes and cartilage from a mature bovine knee was assessed. PRO1 and its analogues were incubated with primary bovine chondrocytes or cartilage explants cultures grown in the presence of TNFα and oncostatin M to mimic the cytokine-induced damage that can occur during OA. In the presence of the cytokine cocktail, in vitro cultured primary chondrocytes released 4-5 fold more nitric oxide (NO) than the untreated chondrocytes (50 μM vs 10 μM) as measured by the Greiss reaction. […]
(§2) Primary hMSCs were plated (10,000/well) in 384-well plates and cultured for 18 days. […] 20 μl of the supernatant was mixed with 20 μl of the Greiss reagent and quantitated at 540 nm as described by the Promega kit instructions. […]

Data set [1] deals with bovine cartilage explants. As to the kind of experiment: cytokine-induced GAG release from cartilage explants ex vivo. The format is cell-based. To be noted: TNFα and oncostatin M, 72 hours; up to.
Text: as §1, §2

In data set [2] the test system is primary bovine chondrocytes. Description: inhibition of cytokine-induced nitric oxide release (Greiss reaction). The format is cell-based. An excerpt: In the screen, hMSCs were used as a surrogate to future targeting of the resident MSCs with the cartilage joint. It was in that setting upon which we identified PRO1. In a joint injury, the primary cell type a therapeutic would have contact with is the chondrocyte. Although cartilage or chondrocyte-targeted screening has not lead to the development of a successful drug modifying osteoarthritis drug (DMOAD) to date, it is believed that a stem cell-based therapeutic would protect and even repair the existing chondrocytes. Therefore, protection of the articular chondrocytes and cartilage from a mature bovine knee was assessed. PRO1 and its analogues were incubated with primary bovine chondrocytes or cartilage explants cultures grown in the presence of TNFα and oncostatin M to mimic the cytokine-induced damage that can occur during OA. In the presence of the cytokine cocktail, in vitro cultured primary chondrocytes released 4-5 fold more nitric oxide (NO) than the untreated chondrocytes (50 μM vs 10 μM) as measured by the Greiss reaction. In cells treated with the cytokine cocktail and PRO1, the small molecule could effectively block the release of NO by up to 70% FIG. 2C). Similarly, in ex vivo treated cartilage explants, cytokine-induced release of glycosaminoglycans (GAG) was reduced by up to 60% by PRO1 (FIG. 2D). Finally, hMSC were grown in pellet culture for 21 days.
Primary hMSCs were plated (10,000/well) in 384-well plates and cultured for 18 days. The cells were fixed with 4% formalin, permeabilized with triton (0.5%), digested with 0.5 mg/ml collagenase II to unwind the collagen fibrils, and then immunostained with an antibody recognizing type II collagen. DAPI (2 μg/ml) was added to visualize the nuclei. The chondrogenic nodules stained positive for type II collagen but lacked expression of type X collagen and osteocalcin, markers for chondrocyte hypertrophy and osteoblasts, respectively (not shown). 10,000 hMSCs (passages 3-5) were plated in Greiner 384-well low-bottom plates on day 1. The cells were allowed to adhere and stimulated for 48 hrs (days 2-3) with the indicated stimuli in MSC growth media (Millipore). The media was then removed and replaced with serum-free DMEM for an additional 16 days. This media was replenished on days 10 and 15 of the assay. Primary bovine chondrocytes were isolated from the articular surfaces from mature knees. After one week of culture, 8,500 cells were trypsinized and plated in Greiner 384-well white clear-bottom plates in growth media. […] 20 μl of the supernatant was mixed with 20 μl of the Greiss reagent and quantitated at 540 nm as described by the Promega kit instructions. Bovine cartilage explants (cut in circular explants in a 96 well plate) were cultured in the presence of 20 ng/ml TNFα and 10 ng/ml oncostatin M to induce GAG release for 72 hours (FIG. 2D). PRO1 was added at the indicated concentrations during the entire 72 hrs. […] Parafin sections were hydrated, incubated in low pH Antigen unmasking solution (Vector) at 90 C for 10 minutes, permeabilized with 0.1% collagenase II (only for the sections stained with type II collagen) for 10 minutes, blocked with CAS block for 10 minutes and then incubated with the primary antibody (type II collagen, aggrecan or Timp1) antibody (Abcam) overnight at 4 C. The antigens were visualized through standard ABC detection methods and developed with DAB. Representative of 3 sections stained/treatment group (independent experiments).

The next data set concerns female 129SVE mice. As to the kind of experiment: surgically induced cartilage injury (ACL, MCL, MMTL transection). The conditions noted are these: IA injection days 7, 14 and 21. The format is in vivo. The protocol: Surgical transection of the ACL, MCL, and MMTL was performed to induce cartilage injury in female 129SVE mice. Mice were dosed by IA injection on days 7, 14 and 21. The medial tibial plateaus from representative mice were assessed on day 28 (FIG. 4A). Histomorphometric analyses and grading by two blinded observers using a modified OARSI scoring system determined the joint severity scores of the […] tibial plateau on day 28 after surgical induction (FIG. 4B). At 28 days, peripheral blood was collected by retro-orbital bleeding and the serum was used to determine the cleaved type II collagen fragments (CTX-II levels) by ELISA (Serum Pre-Clinical Cartilaps, Immunodiagnostic Systems, Fountain Hills, Ariz.). n=15/treatment group (FIG. 4C).

In a further data set the test system is chondrocytes. Description: toxicity in chondrocytes. The conditions noted are these: 100 μM. The format is cell-based.
In data set [3] the test system is human mesenchymal stem cells (hMSCs). As to the kind of experiment: chondrogenic nodule formation by hMSCs (high throughput screen). The format is cell-based. An outline of the steps: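 Primary hMSCs (10^4/well) in serum-free DMEM exposed to compounds at 5 μM for 4 days. Chondrogenic nodules stained with Nile red (binds collagens) and counted by high-content imaging with 488 laser excitation. In 96-well follow-up, 50,000 cells/well treated 4 days, formalin-fixed, stained with 1 μg/ml Rhodamine B.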

Structures are written as SMILES. Where two headings read alike, the source gives them in different places.

`O=C(O)c1ccccc1C(=O)Nc1ccc(-c2ccccc2)cc1` [AKT]: in the data set on hMSC, the “type II collagen and aggrecan expression” value was “increase type II collagen and aggrecan expression”. In data set [1], the “reduction of cytokine-induced release of glycosaminoglycans (GAG)” value is “up to 60%”. Also, in data set [2] (TNFα and oncostatin M cocktail, up to), the “block of cytokine-induced release of NO” value was “up to 70%”. In addition, the IC50 in data set [2] (second value of the cell (after the slash), TNFα and oncostatin M, 48 hours, read-out: NO INHIBTION μM IC50) amounted to 0.45 µM. Moreover, in the data set on female 129SVE mice (day 28), the cartilage damage result was “Protection”. The “CTX-II peptide in plasma” value in the data set on female 129SVE mice (day 28, ELISA) is listed as “Inhibition”. In addition, in the data set on chondrocytes, the toxicity result was “No toxicity”. For the same molecule, the cartilage nodule formation entry in data set [3] (100 nM, 4 days, Rhodamine B stain) was “Rapid Phenotypic Cartilage Nodule Formation”. Besides, the EC50 in data set [3] (Homo sapiens, Mesenchymal stem cells, 96 h, primary screen, Nile red stained nodules, 4 days, read-out: EC50) is 0.1 µM; in data set [3] (first value of the cell (before the slash), read-out: CHONDROGENIC μM EC50), 0.225 µM.

One may read the IC50 as the concentration that inhibits the measured activity by half. By EC50 is commonly meant the concentration needed to bring the measured effect to its halfway point.
